Reference: patent US20150045284A1 (priority 2011, published 2015)

How the values were obtained:
[1] = molecular target: LpCopA (Legionella pneumophila Cu^+ transporting P-type ATPase) (Legionella pneumophila subsp. pneumophila, UniProt Q5ZWR1); settings: for Measured LpCopA activity in the presence of different ions (relative ATPase activity): 100 μM CuCl2 or AgNo3, 1 mg/mL E. coli total lipid extract, 20 mM cysteine, TTM background subtracted
HMBD-truncated LpCopA = HMBD-truncated LpCopA (Legionella pneumophila subsp. pneumophila, UniProt Q5ZWR1)
Sequence of HMBD-truncated LpCopA (Q5ZWR1 75-736 limits assumed): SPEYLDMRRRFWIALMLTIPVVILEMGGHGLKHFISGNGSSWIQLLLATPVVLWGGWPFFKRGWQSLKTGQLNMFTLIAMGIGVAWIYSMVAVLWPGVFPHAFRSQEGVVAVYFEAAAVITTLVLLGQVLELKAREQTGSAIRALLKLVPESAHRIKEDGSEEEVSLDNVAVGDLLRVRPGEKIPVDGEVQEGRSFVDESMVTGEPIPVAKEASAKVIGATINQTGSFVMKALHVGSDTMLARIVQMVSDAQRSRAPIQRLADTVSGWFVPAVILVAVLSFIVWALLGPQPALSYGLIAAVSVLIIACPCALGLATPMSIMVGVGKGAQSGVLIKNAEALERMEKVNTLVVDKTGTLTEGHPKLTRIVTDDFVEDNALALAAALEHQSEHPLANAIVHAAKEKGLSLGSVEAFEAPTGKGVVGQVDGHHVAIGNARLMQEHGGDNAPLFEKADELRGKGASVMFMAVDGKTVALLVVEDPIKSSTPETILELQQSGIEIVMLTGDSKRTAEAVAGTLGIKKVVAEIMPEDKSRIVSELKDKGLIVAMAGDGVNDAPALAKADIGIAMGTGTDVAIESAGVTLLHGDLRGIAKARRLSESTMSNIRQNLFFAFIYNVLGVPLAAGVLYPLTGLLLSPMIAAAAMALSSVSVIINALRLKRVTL

Sequence of LpCopA (Legionella pneumophila Cu^+ transporting P-type ATPase) (Q5ZWR1 whole entry, looked up, the tested form may be a part): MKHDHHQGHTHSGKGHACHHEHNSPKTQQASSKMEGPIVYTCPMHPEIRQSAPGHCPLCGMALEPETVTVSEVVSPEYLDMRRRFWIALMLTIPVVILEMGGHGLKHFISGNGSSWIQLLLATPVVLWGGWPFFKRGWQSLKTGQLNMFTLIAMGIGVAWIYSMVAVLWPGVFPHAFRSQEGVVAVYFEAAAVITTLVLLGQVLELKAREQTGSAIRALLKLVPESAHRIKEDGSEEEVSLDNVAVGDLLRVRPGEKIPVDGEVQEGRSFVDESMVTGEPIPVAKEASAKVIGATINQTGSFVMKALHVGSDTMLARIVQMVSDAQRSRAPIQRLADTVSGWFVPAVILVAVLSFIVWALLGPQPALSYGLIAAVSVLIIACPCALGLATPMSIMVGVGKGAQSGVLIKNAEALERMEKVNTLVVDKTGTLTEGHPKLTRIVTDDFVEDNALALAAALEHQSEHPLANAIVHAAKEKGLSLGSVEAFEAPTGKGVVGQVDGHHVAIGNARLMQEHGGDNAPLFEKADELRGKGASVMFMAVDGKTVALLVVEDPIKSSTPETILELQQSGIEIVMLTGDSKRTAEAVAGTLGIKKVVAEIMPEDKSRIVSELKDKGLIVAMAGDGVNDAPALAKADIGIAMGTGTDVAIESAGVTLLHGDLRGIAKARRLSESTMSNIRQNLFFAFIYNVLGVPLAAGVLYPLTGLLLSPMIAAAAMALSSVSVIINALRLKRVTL

Row | SMILES | Measured LpCopA activity in the presence of different ions (relative ATPase activity) [1] | CuCl2 concentration of optimum ATPase activity (HMBD-truncated LpCopA) | CuCl2 concentration of highest ATPase activity ([1]; full-length LpCopA, 10 nM to 10 mM CuCl2 incl. 10 μM TTM, appears inhibited above)
1 | [Ag+] [Ag^+] | clearly stimulate ATPase activity | – | –
2 | [Cl][Cu][Cl] [CuCl2] | – | about 1 mM | 1 mM
3 | [Cu+] [Cu^+] | clearly stimulate ATPase activity | – | –
